Data on 32 molecules can be found in US5228957A, “Separation of methyl T-butyl ether from close boiling C5 hydrocarbons by extractive distillation” (priority 1993, dated 1993).

Common to all, as to type: physicochemical
Series [1] in a line: Extractive distillation agent separating methyl t-butyl ether from n-pentane-cyclopentane mixtures (vapor-liquid equilibrium still).
Series [2] can be described thus: Extractive distillation agent separating methyl t-butyl ether from 1-pentene (vapor-liquid equilibrium still).
A short description of series [3]: Relative volatility of methyl t-butyl ether from close boiling hydrocarbons, no agent (vapor-liquid equilibrium still). The settings on record: hydrocarbon to methyl t-butyl ether. An excerpt:
I have discovered that certain organic compounds will effectively increase the relative volatility between methyl t-butyl ether and close boiling hydrocarbons when employed as the agent in extractive distillation. The data in Tables 2-6 was obtained in a vapor-liquid equilibrium still.

The nature of series [4]: Extractive distillation agent separating methyl t-butyl ether from cyclopentane (vapor-liquid equilibrium still). The settings on record: cyclopentane to methyl t-butyl ether, with agent. An excerpt:
The data in Tables 2-6 was obtained in a vapor-liquid equilibrium still.

The mark [5] stands for this setting: cyclopentane to methyl t-butyl ether, n-pentane-cyclopentane mixture, with agent.
Setting [6] is: n-pentane to methyl t-butyl ether, n-pentane-cyclopentane mixture, with agent.
Where [7] appears, read: 1-pentene to methyl t-butyl ether, with agent.

Structures can show the parent of a compound that is named as a salt. Where two headings read alike, the source gives them in different places.

With `CC(O)COc1ccccc1` (stereo not shown) [Propylene glycol phenyl ether], in series [1] (setting [5]), the “Relative Volatility CyP/MTBE” value is reported as 2.0. Besides, the “Relative Volatility Pnt/MTBE” value in series [1] (setting [6]) is 4.2. For the same molecule, the “Relative Volatility” value in series [2] (setting [7]) was 3.2.

Turning to `CC(=O)OC(C)C` [Isopropyl acetate], the “Relative Volatility CyP/MTBE” value in series [1] (setting [5]) is listed as 1.8. For the same molecule, the “Relative Volatility Pnt/MTBE” value in series [1] (setting [6]) is given as 3.1.

For the molecule `C[N+](=O)[O-]` [Nitromethane], in series [1], the “Relative Volatility CyP/MTBE” value was determined as 1.6 and the “Relative Volatility Pnt/MTBE” value was 1.5.

For the molecule `CCOC(=O)CC(C)C` [Ethyl isovalerate], the “Relative Volatility CyP/MTBE” value in series [1] (setting [5]) is 1.5. Also, in series [1] (setting [6]), the “Relative Volatility Pnt/MTBE” value was 2.5.

For `CC(=O)CCC(C)C` [Methyl isoamyl ketone], the “Relative Volatility CyP/MTBE” value in series [1] (setting [5]) came to 1.7. In addition, the “Relative Volatility Pnt/MTBE” value in series [1] (setting [6]) was 2.8. Moreover, the “Relative Volatility” value in series [2] (setting [7]) worked out at 2.6.

In the case of `CC(C)CC(=O)CC(C)C` [Diisobutyl ketone], the “Relative Volatility CyP/MTBE” value in series [1] (setting [5]) turned out to be 1.5. Moreover, the “Relative Volatility Pnt/MTBE” value in series [1] (setting [6]) came to 2.5.

For the molecule `CCCCC` [n-Pentane], the “Relative Volatility” value in series [3] is 1.6; in series [3] (listed as n-pentane), “less than 1.7”.

Regarding `CCOC(=O)CC(=O)OCC` [Diethyl malonate], the “Relative Volatility CyP/MTBE” value in series [1] (setting [5]) is listed as 2.0. Moreover, the “Relative Volatility Pnt/MTBE” value in series [1] (setting [6]) was determined as 3.7. In addition, in series [2] (setting [7]), the “Relative Volatility” value was 3.1.

For `CC1=CC(=O)CC(C)(C)C1` [Isophorone], the “Relative Volatility CyP/MTBE” value in series [1] (setting [5]) is 1.5. Also, in series [1] (setting [6]), the “Relative Volatility Pnt/MTBE” value was 2.8.

Take `CC[N+](=O)[O-]` [Nitroethane]: in series [1], the “Relative Volatility CyP/MTBE” value came to 2.9 and the “Relative Volatility Pnt/MTBE” value came out at 5.2. The “Relative Volatility” value in series [2] was determined as 3.0.

For the molecule `C1CCCC1` [Cyclopentane], the “Relative Volatility” value in series [3] is on record as 1.55; in series [3] (listed as cyclopentane) it was “less than 1.7”.

For `C=CCCC` [1-Pentene], the “Relative Volatility” value is 1.7 in series [3] and “less than 1.7” in series [3] (listed as 1-pentene).

Consider `CCOC(=O)OCC` [Diethyl carbonate], for which the “Relative Volatility CyP/MTBE” value in series [1] (setting [5]) is recorded as 1.8. Further, the “Relative Volatility Pnt/MTBE” value in series [1] (setting [6]) came to 3.1.

Regarding `COCC(C)OC(C)=O` (stereo not shown) [1-Methoxy-2-propanol acetate], in series [1] (setting [5]), the “Relative Volatility CyP/MTBE” value is 1.9. The “Relative Volatility Pnt/MTBE” value in series [1] (setting [6]) was 3.3. For the same molecule, the “Relative Volatility” value in series [2] (setting [7]) turned out to be 3.5.

Turning to `O=S1(=O)CCCC1` [Sulfolane], in series [1] (setting [5]), the “Relative Volatility CyP/MTBE” value is recorded as 3.6. In addition, in series [1] (setting [6]), the “Relative Volatility Pnt/MTBE” value came to 2.4. Moreover, the “Relative Volatility” value in series [2] came out at 4.4; in series [4], 3.6.

As for `CCOC(=O)CC(C)=O` [Ethyl acetoacetate], the “Relative Volatility CyP/MTBE” value in series [1] (setting [5]) is 1.9. Besides, the “Relative Volatility Pnt/MTBE” value in series [1] (setting [6]) is listed as 4.2.

As to `C[S+](C)[O-]` [Dimethylsulfoxide], the “Relative Volatility CyP/MTBE” value in series [1] (setting [5]) was determined as 2.7. Also, the “Relative Volatility Pnt/MTBE” value in series [1] (setting [6]) is given as 2.8. The entries for the “Relative Volatility” value in series [2] (setting [7]) and in series [4] were 3.9 and 1.8, respectively.

Take `CC(C)(C)O` [t-Butanol]: the “Relative Volatility” value in series [4] is listed as 2.2.

As for `CCOC(=O)/C=C\C(=O)OCC` [Diethyl maleate], the “Relative Volatility CyP/MTBE” value in series [1] (setting [5]) is reported as 1.8. For the same molecule, the “Relative Volatility Pnt/MTBE” value in series [1] (setting [6]) is reported as 3.4.

On to `CCOC(C)=O` [Ethyl acetate], for which, in series [1] (setting [5]), the “Relative Volatility CyP/MTBE” value amounted to 1.8. The “Relative Volatility Pnt/MTBE” value in series [1] (setting [6]) is 2.9.

Take `CC(=O)c1ccccc1` [Acetophenone]: the “Relative Volatility CyP/MTBE” value in series [1] (setting [5]) came out at 1.7. The “Relative Volatility Pnt/MTBE” value in series [1] (setting [6]) turned out to be 1.7. The “Relative Volatility” value in series [4] is 1.6.

As to `CCC[N+](=O)[O-]` [1-Nitropropane], the “Relative Volatility CyP/MTBE” value in series [1] (setting [5]) came to 2.8. Besides, the “Relative Volatility Pnt/MTBE” value in series [1] (setting [6]) was 5.2.

With `CC(C)[N+](=O)[O-]` [2-Nitropropane], the “Relative Volatility CyP/MTBE” value in series [1] (setting [5]) is given as 2.2. Besides, the “Relative Volatility Pnt/MTBE” value in series [1] (setting [6]) came to 3.8.

Turning to `COCCO` [Ethylene glycol methyl ether], in series [2], the “Relative Volatility” value worked out at 3.6.

Turning to `CCCOC(C)=O` [n-Propyl acetate], the “Relative Volatility CyP/MTBE” value in series [1] (setting [5]) turned out to be 1.8. In addition, the “Relative Volatility Pnt/MTBE” value in series [1] (setting [6]) amounted to 2.6.

Regarding `CN1CCCC1=O` [1-Methyl-2-pyrrolidinone], the “Relative Volatility CyP/MTBE” value in series [1] (setting [5]) worked out at 1.8. Further, in series [1] (setting [6]), the “Relative Volatility Pnt/MTBE” value came out at 3.9. The “Relative Volatility” value in series [4] is listed as 1.8.

Consider `CN(C)C=O` [Dimethylformamide], for which the “Relative Volatility CyP/MTBE” value in series [1] came to 2.3. Besides, the “Relative Volatility Pnt/MTBE” value in series [1] is reported as 4.7. For the same molecule, the “Relative Volatility” value in series [2] came to 3.0; in series [4], 2.0.

Take `CCCCCCOC=O` [n-Hexyl formate]: the “Relative Volatility CyP/MTBE” value in series [1] (setting [5]) is 1.6. For the same molecule, the “Relative Volatility Pnt/MTBE” value in series [1] (setting [6]) came to 1.6.

On to `COC(=O)c1ccccc1O` [Methyl salicylate], for which the “Relative Volatility CyP/MTBE” value in series [1] (setting [5]) is listed as 1.6. The “Relative Volatility Pnt/MTBE” value in series [1] (setting [6]) is listed as 1.9.

With `CC(=O)OCC(COC(C)=O)OC(C)=O` [Triacetin], the “Relative Volatility CyP/MTBE” value in series [1] (setting [5]) worked out at 1.9. Moreover, the “Relative Volatility Pnt/MTBE” value in series [1] (setting [6]) is 3.6.

For `CC(=O)CC(C)=O` [2,4-Pentanedione], the “Relative Volatility CyP/MTBE” value in series [1] (setting [5]) turned out to be 1.9. For the same molecule, the “Relative Volatility Pnt/MTBE” value in series [1] (setting [6]) amounted to 3.4.

As to `CC(=O)OCCOC(C)=O` [Ethylene glycol diacetate], the “Relative Volatility CyP/MTBE” value in series [1] (setting [5]) was 1.8. In addition, the “Relative Volatility Pnt/MTBE” value in series [1] (setting [6]) is listed as 3.3. The “Relative Volatility” value in series [2] (setting [7]) was found to be 5.5.
